Test results: patent publication EP2058306A1, “Heteroaryl-substituted 2-pyridinyl-methylamine derivatives” (SCHWARZ PHARMA AG, priority 2007, dated 2009)
Like-named read-outs stand apart in the source and are kept apart here.

Legend:
[1] = molecular target: T1, human D4.4 (Homo sapiens, UniProt P21917); assay: radioligand binding assay, dopamine D4.4 receptor, [3H]spiperone; conditions: CHO cell membranes, mean of two to five experiments in triplicate, read-out: Ki D4.4
T1 sequence (P21917 1-419): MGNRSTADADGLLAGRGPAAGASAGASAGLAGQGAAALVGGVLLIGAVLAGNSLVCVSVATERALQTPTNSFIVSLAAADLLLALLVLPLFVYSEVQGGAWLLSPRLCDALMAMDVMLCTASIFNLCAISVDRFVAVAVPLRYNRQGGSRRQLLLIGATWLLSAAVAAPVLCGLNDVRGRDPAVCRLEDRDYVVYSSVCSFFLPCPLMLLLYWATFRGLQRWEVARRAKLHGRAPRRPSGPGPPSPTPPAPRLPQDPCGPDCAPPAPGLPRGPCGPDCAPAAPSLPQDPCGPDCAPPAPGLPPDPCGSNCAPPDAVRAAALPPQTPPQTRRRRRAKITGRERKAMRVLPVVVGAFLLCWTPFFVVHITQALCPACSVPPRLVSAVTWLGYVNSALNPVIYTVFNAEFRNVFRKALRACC
Source text: (§1) Biological activity of the compounds has been determined in radioligand binding assays. These experiments have been done according to methods which are described in literature (Hübner, H. et al., J. Med. Chem. (2000), 43, 7562). For the determination of binding affinity to the receptors of the dopamine D2 family membranes were established carrying the human D2long, D2short, D3 or D4.4 receptor subtype stably expressed in Chinese hamster ovary cell lines. In principle, the binding experiments started when incubating an appropriate amount of membrane with the radioligand [^3H]spiperone and the particular test compounds used in a wide range of different concentrations from subnanomolar up to micromolar ones. In the same way, binding affinities of the test compounds to the dopamine D1 receptor were determined when using native membrane preparations from porcine striatum and the D1 selective radioligand [^3H]SCH 23390.
(§2) The results of the binding experiments are summarized in Table 1 as mean values of two to five individual experiments each done in triplicate and expressed as Ki values in nM.

[2] = molecular target: T2, 5-HT1A (Sus scrofa, UniProt A0A4X1UTF5); assay: radioligand binding assay, serotonin 5-HT1A receptor, [3H]WAY 100635; conditions: porcine cortex membranes, mean of two to five experiments in triplicate, read-out: Ki 5-HT1a
T2 construct: membrane preparations from porcine cortex; from tissue; host or cells: porcine cortex
T2 sequence (A0A4X1UTF5 1-422): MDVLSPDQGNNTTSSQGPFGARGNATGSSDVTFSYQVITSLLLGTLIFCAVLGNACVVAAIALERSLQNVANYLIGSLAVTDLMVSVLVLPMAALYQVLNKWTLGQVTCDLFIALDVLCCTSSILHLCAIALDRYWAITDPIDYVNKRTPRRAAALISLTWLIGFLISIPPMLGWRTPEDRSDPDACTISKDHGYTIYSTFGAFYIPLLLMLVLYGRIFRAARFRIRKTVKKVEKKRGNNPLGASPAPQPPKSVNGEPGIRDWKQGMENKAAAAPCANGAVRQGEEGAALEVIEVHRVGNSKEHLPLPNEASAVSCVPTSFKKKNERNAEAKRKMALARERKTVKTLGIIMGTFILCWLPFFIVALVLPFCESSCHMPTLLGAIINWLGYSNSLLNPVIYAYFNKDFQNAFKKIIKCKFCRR
Description: (§3) The investigation of receptor binding to the serotonin and adrenergic receptors was done according to a published procedure (Heindl, C. et al., Tetrahedron: Asymmetry (2003), 14, 3141-3152). In detail, for the determination of the binding properties to serotonin receptors membrane preparations from porcine cortex was incubated with the 5-HT1A selective radioligand [^3H]WAY 100635 or with the 5-HT2 selective compound [^3H]ketanserin. The measurement of alpha-1 and alpha-2 receptor binding was achieved when utilizing porcine cortical membranes and the selective radioligands [^3H]prazosin (for alpha-1) and [^3H]RX821002 in an assay similar to that described above.
as §2

[3] = molecular target: T3, human 5-HT1A receptor (Homo sapiens, UniProt P08908); assay: [35S]GTPγS assay of functional activity at the 5-HT1A receptor; type: biochemical; conditions: membranes from CHO cells expressing human 5-HT1A receptor; for 5-HT1A stimulated [35S]GTPγS binding intrinsic effect: % activity of serotonin; for EC50: read-out: 5-HT1A stimulated [35S]GTPγS binding EC50 value
T3 construct: expressed in transfected cells
T3 sequence (P08908 1-422): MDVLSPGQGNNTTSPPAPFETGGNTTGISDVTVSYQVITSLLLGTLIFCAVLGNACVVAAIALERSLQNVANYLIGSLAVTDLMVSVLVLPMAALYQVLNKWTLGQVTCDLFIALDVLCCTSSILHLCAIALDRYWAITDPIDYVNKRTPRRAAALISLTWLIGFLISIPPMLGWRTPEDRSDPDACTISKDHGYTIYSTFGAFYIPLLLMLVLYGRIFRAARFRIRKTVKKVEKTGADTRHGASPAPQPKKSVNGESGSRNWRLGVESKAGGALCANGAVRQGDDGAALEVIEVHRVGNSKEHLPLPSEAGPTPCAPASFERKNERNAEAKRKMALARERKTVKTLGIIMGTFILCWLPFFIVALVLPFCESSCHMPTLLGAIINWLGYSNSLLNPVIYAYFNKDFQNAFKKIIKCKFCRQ
Description: In detail, membranes from CHO (Chinese hamster ovary) cells stably expressing the human 5-HT1A receptor were stimulated with an increasing concentration of test compounds used in a range of subnanomolar to micromolar concentrations in the presence of radioactive [^35S]GTPγ. The amount of bound radioactivity which indicates the amount of stimulation of the receptor was determined after transferring the membranes to filters by scintillation counting. Dose response correlations could be derived and the particular stimulation of the receptor was compared to the maximum effect of the reference compound and physiological ligand serotonin.
Table 2: Intrinsic activities of the compounds of this invention at the serotonin 5-HT1A receptor determined in a [35S]GTPγS assay

[4] = molecular target: human D3 (Homo sapiens, UniProt P35462); assay: radioligand binding assay, dopamine D3 receptor, [3H]spiperone; conditions: CHO cell membranes, mean of two to five experiments in triplicate, read-out: Ki D3
human D3, sequence (P35462 whole entry): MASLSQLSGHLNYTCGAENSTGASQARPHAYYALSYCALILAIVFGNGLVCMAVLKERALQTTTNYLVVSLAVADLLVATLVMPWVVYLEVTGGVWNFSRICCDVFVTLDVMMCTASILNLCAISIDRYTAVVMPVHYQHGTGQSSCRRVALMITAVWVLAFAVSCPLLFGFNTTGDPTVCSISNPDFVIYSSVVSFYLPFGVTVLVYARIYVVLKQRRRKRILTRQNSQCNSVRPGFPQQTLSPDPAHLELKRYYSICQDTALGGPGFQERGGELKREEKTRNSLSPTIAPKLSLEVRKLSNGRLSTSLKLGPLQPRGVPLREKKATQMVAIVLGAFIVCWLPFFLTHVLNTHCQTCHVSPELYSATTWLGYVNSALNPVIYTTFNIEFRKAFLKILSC
Description: as §1, with “These” for “Biological activity of the compounds has been determined in radioligand binding assays. These”, “ones.” for “ones. In the same way, binding affinities of the test compounds to the dopamine D1 receptor were determined when using native membrane preparations from porcine striatum and the D1 selective radioligand [^3H]SCH 23390.”

[5] = molecular target: T4, 5-HT2 (Sus scrofa, UniProt P50129); assay: radioligand binding assay, serotonin 5-HT2 receptor, [3H]ketanserin; design: species or system porcine
T4 construct: membrane preparations from porcine cortex; from tissue; host or cells: porcine cortex
T4 sequence (P50129 whole entry): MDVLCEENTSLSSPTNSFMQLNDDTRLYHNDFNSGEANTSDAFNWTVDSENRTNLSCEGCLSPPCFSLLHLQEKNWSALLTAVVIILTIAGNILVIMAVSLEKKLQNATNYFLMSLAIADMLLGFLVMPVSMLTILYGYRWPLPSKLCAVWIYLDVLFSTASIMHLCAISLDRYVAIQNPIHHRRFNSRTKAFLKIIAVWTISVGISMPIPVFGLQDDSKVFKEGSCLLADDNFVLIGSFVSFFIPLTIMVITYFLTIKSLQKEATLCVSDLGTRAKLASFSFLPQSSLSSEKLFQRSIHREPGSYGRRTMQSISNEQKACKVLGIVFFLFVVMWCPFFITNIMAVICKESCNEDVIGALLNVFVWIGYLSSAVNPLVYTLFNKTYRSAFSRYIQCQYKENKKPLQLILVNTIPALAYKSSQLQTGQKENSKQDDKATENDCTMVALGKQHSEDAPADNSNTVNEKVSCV

[6] = molecular target: alpha-1; assay: radioligand binding assay, adrenergic alpha-1 receptor, [3H]prazosin; conditions: porcine cortical membranes, mean of two to five experiments in triplicate, read-out: Ki alpha1
Description: as §3, §2

[7] = molecular target: T5, dopamine D1 receptor (Sus scrofa, UniProt P50130); assay: radioligand binding assay, dopamine D1 receptor, [3H]SCH 23390; conditions: porcine striatum membranes, mean of two to five experiments in triplicate, read-out: Ki D1
T5 construct: native membrane preparations from porcine striatum; from tissue; host or cells: porcine striatum
T5 sequence (P50130 whole entry): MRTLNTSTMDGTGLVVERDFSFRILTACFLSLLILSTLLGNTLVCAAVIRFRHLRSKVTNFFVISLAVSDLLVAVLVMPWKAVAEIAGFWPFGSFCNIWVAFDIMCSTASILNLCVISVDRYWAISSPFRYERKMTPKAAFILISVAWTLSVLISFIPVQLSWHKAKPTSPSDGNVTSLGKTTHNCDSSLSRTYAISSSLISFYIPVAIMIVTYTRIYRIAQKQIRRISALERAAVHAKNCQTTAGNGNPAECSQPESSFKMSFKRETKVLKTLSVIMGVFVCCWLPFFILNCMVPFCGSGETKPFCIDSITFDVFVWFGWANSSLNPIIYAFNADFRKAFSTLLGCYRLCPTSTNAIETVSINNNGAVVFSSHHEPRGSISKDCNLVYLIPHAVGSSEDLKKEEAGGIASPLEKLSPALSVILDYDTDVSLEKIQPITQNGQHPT
Source text: as §1, §2

[8] = molecular target: human D2long, D2short (Homo sapiens, UniProt P14416); assay: biochemical; type: binding; conditions: CHO cell membranes, [3H]spiperone; mean of two to five experiments in triplicate; read-out: Ki D2
human D2long, D2short, sequence (P14416 whole entry): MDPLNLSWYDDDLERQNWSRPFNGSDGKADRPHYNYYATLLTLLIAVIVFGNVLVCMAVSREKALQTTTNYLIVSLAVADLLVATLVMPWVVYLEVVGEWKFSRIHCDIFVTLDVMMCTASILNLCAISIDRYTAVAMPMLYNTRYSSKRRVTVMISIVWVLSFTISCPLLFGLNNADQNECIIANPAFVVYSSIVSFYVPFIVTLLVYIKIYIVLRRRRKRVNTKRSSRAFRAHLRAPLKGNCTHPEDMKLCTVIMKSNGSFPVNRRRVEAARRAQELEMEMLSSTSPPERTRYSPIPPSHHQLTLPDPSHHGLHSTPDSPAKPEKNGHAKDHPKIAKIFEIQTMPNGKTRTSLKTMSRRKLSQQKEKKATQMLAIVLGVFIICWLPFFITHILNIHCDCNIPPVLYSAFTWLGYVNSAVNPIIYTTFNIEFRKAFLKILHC
Description: as §1, with “These” for “Biological activity of the compounds has been determined in radioligand binding assays. These”, “ones.” for “ones. In the same way, binding affinities of the test compounds to the dopamine D1 receptor were determined when using native membrane preparations from porcine striatum and the D1 selective radioligand [^3H]SCH 23390.”

[9] = cited from Maurel et al, reference (14); cited from earlier work
[10] = porcine cortex membranes, [3H]ketanserin, mean of two to five experiments in triplicate, read-out: Ki 5-HT2

SMILES | Ki [1] | Ki [2] | 5-HT1A stimulated [35S]GTPγS binding intrinsic effect [3] | EC50 [3] | Ki [4] | Ki [5, 10] | Ki [6] | Ki [7] | Ki [8] | Ki [5] | half-life elimination from plasma [9]
Cc1ccc(CNCC2(F)CCN(C(=O)c3cccs3)CC2)nc1 [Example E1] | > 5 µM | < 0.05 µM | D (D=full agonist (>75%)) | < 0.05 µM | > 5 µM | > 5 µM | > 5 µM | > 5 µM | > 5 µM | – | –
Cc1ccc(CNCC2(F)CCN(C(=O)c3sccc3Cl)CC2)nc1 [Example E3, 3-Chlorothien-2-yl-[4-fluoro-4-[[(5-methylpyridin-2-ylmethyl)amino]methyl]-piperidin-1-yl]-methanone] | 0.501 to 5 µM | < 0.05 µM | D (D=full agonist (>75%)) | < 0.05 µM | > 5 µM | > 5 µM | 0.501 to 5 µM | > 5 µM | > 5 µM | – | –
Cc1ccc(CNCC2(F)CCN(C(=O)c3ccc(Cl)s3)CC2)nc1 [Example E4, 5-Chlorothien-2-yl-[4-fluoro-4-[[(5-methylpyridin-2-ylmethyl)amino]methyl]-piperidin-1-yl]-methanone] | 0.501 to 5 µM | < 0.05 µM | D (D=full agonist (>75%)) | < 0.05 µM | > 5 µM | > 5 µM | 0.501 to 5 µM | > 5 µM | > 5 µM | – | –
Cc1ccc(CNCC2(F)CCN(C(=O)c3sccc3Br)CC2)nc1 [Example E5, 3-Bromothien-2-yl-[4-fluoro-4-[[(5-mothylpyridin-2-ylmethyl)amino]mothyl]-piperidin-1-yl]-methanone] | 0.501 to 5 µM | < 0.05 µM | D (D=full agonist (>75%)) | < 0.05 µM | > 5 µM | – | 0.501 to 5 µM | > 5 µM | > 5 µM | > 5 µM | –
Cc1ccc(CNCC2(F)CCN(C(=O)c3cc(Br)cs3)CC2)nc1 [Example E6, 4-Bromothien-2-yl-[4-fluoro-4-[[(5-methylpyridin-2-ylmethyl)amino]methyl]-piperidin-1-yl]-methanone] | 0.501 to 5 µM | < 0.05 µM | D (D=full agonist (>75%)) | < 0.05 µM | > 5 µM | > 5 µM | 0.501 to 5 µM | > 5 µM | > 5 µM | – | –
Cc1ccc(CNCC2(F)CCN(C(=O)c3ccc(Br)s3)CC2)nc1 [Example E7, 5-Bromothion-2-yl-[4-fluoro-4-[[(5-mothylpyridin-2-ylmethyl)amino]methyl]-piperidin-1-yl]-methanone] | 0.501 to 5 µM | < 0.05 µM | D (D=full agonist (>75%)) | < 0.05 µM | > 5 µM | – | 0.501 to 5 µM | > 5 µM | > 5 µM | > 5 µM | –
Cc1ccc(CNCC2(F)CCN(C(=O)c3sccc3C)CC2)nc1 [Example E9, [4-Fluoro-4-[[(5-methylpyridin-2-ylmethyl)amino]methyl]piperidin-1-yl]-3-methylthien-2-yl-methanone] | > 5 µM | < 0.05 µM | D (D=full agonist (>75%)) | < 0.05 µM | > 5 µM | > 5 µM | > 5 µM | > 5 µM | > 5 µM | – | –
Cc1ccc(CNCC2(F)CCN(C(=O)c3cc(C)cs3)CC2)nc1 [Example E10, [4-Fluoro-4-[[(5-methylpyridin-2-ylmethyl)amino]methyl]piparidin-1-yl]-4-methylthien-2-yl-mothanone] | 0.501 to 5 µM | < 0.05 µM | D (D=full agonist (>75%)) | < 0.05 µM | > 5 µM | – | 0.501 to 5 µM | > 5 µM | > 5 µM | > 5 µM | –
Cc1ccc(CNCC2(F)CCN(C(=O)c3ccc(C)s3)CC2)nc1 [Example E11, [4-Fluoro-4-[[(5-methylpyridin-2-ylmethyl)amino]methyl]piperidin-1-yl]-5-mothylthiophon-2-yl-mothanone] | 0.501 to 5 µM | < 0.05 µM | D (D=full agonist (>75%)) | < 0.05 µM | > 5 µM | – | > 5 µM | > 5 µM | > 5 µM | > 5 µM | –
Cc1ccc(CNCC2(F)CCN(C(=O)c3ccsc3)CC2)nc1 [Example E18, [4-Fluoro-4-[[(5-methylpyridin-2-ylmethyl)amino]methyl]piperidin-1-yl]-thien-3-yl-methanone] | > 5 µM | < 0.05 µM | D (D=full agonist (>75%)) | < 0.05 µM | > 5 µM | > 5 µM | > 5 µM | > 5 µM | > 5 µM | – | –
Cc1ccc(CNCC2(F)CCN(C(=O)c3ccc(F)c(Cl)c3)CC2)nc1 [Example F13640, reference compound] | – | – | D (D=full agonist (>75%)) | – | – | – | – | – | – | – | 35 h
